# In patent US9382209B2, “Polymorphic forms of ivabradine hydrochloride” (CADILA HEALTHCARE LIMITED, priority 2011, dated 2016):
# Experiments:
# [1] = Storage stability of crystalline forms at 40° C./75% RH (6 months stability results); assay type: physicochemical; settings: for Impurity Profile (i) Tetrahydro benzazepine / Impurity Profile (ii) (S)-methyl amino Compd. / Impurity Profile (iii) Benzocylco butane Compd. / Impurity Profile (iv) Dimer Impurity: BDL = Below Detection Limit
# Text: In another general aspect, the storage stable crystalline Form-II of ivabradine hydrochloride may be characterized by at least 6 months stability results as outline in Table-III which is representative for one of the batch.
# In another general aspect, the storage stable crystalline Form III of ivabradine hydrochloride may be characterized by at least 6 months stability results as outline in Table-IV which is representative for one of the batch.
# [2] = Storage stability of crystalline forms at 25° C./60% RH; assay type: physicochemical; settings: storage for 6 months at 25° C. and a relative humidity of 60%
# [3] = 1 Month, 40° C. ± 2° C./75% ± 5% RH
# [4] = 1 Month, 40° C. ± 2° C./75% ± 5% RH, listed as Form-II, hydrochloride
# [5] = 2 Months, 40° C. ± 2° C./75% ± 5% RH
# [6] = 2 Months, 40° C. ± 2° C./75% ± 5% RH, listed as Form-II, hydrochloride
# [7] = 3 Months, 40° C. ± 2° C./75% ± 5% RH
# [8] = 3 Months, 40° C. ± 2° C./75% ± 5% RH, listed as Form-II, hydrochloride
# [9] = 6 Months, 40° C. ± 2° C./75% ± 5% RH
# [10] = Initial, specification Not more than 0.15
# [11] = 1 Month, 40° C. ± 2° C./75% ± 5% RH, listed as Form-III, hydrochloride
# [12] = 2 Months, 40° C. ± 2° C./75% ± 5% RH, listed as Form-III, hydrochloride
# [13] = 3 Months, 40° C. ± 2° C./75% ± 5% RH, listed as Form-III, hydrochloride
smiles,measurement,setting,value
"COc1cc2c(cc1OC)CC(=O)N(CCCN(C)C[C@H]1Cc3cc(OC)c(OC)cc31)CC2.Cl [Form II, 3-{3-{{[(7S)-3,4-dimethoxybicyclo[4.2.0]octa-1,3,5-trien-7-yl]methyl}(methyl)amino}-propyl}-7,8-dimethoxy-1,3,4,5-tetrahydro-2H-3-benzazepin-2-one hydrochloride]",Description,[1]; [3],White
same,Water by KF (% w/w),[1]; [3],2.0 % w/w
same,Impurity Profile (i) Tetrahydro benzazepine,[1]; [3],BDL
same,Impurity Profile (ii) (S)-methyl amino Compd.,[1]; [3],BDL
same,Impurity Profile (iii) Benzocylco butane Compd.,[1]; [3],BDL
same,Impurity Profile (iv) Dimer Impurity,[1]; [3],BDL
same,Impurity Profile (v) Single Ind.,[1]; [4],0.02
same,Impurity Profile (vi) Total Imp.,[1]; [4],0.05
same,Polymorph,[1]; [4],Form-II
same,Description,[1]; [5],White
same,Water by KF (% w/w),[1]; [5],2.0 % w/w
same,Impurity Profile (i) Tetrahydro benzazepine,[1]; [5],BDL
same,Impurity Profile (ii) (S)-methyl amino Compd.,[1]; [5],BDL
same,Impurity Profile (iii) Benzocylco butane Compd.,[1]; [5],BDL
same,Impurity Profile (iv) Dimer Impurity,[1]; [5],BDL
same,Impurity Profile (v) Single Ind.,[1]; [6],0.02
same,Impurity Profile (vi) Total Imp.,[1]; [6],0.03
same,Polymorph,[1]; [6],Form-II
same,Description,[1]; [7],White
same,Impurity Profile (vi) Total Imp.,[1]; [7],0.08
same,Water by KF (% w/w),[1]; [7],2.1 % w/w
same,Impurity Profile (i) Tetrahydro benzazepine,[1]; [7],BDL
same,Impurity Profile (ii) (S)-methyl amino Compd.,[1]; [7],BDL
same,Impurity Profile (iii) Benzocylco butane Compd.,[1]; [7],BDL
same,Impurity Profile (iv) Dimer Impurity,[1]; [7],BDL
same,Impurity Profile (v) Single Ind.,[1]; [8],0.03
same,Polymorph,[1]; [8],Form-II
same,Description,[1]; [9],White
same,Impurity Profile (v) Single Ind.,[1]; [9],0.03
same,Impurity Profile (vi) Total Imp.,[1]; [9],0.09
same,Water by KF (% w/w),[1]; [9],2.0 % w/w
same,Impurity Profile (i) Tetrahydro benzazepine,[1]; [9],BDL
same,Impurity Profile (ii) (S)-methyl amino Compd.,[1]; [9],BDL
same,Impurity Profile (iii) Benzocylco butane Compd.,[1]; [9],BDL
same,Impurity Profile (iv) Dimer Impurity,[1]; [9],BDL
same,Polymorph,"[1]; 6 Months, 40° C. ± 2° C./75% ± 5% RH, listed as Form-II, hydrochloride",Form-II
same,Impurity Profile (i) Tetrahydro benzazepine,[1]; [10],BDL
same,Impurity Profile (ii) (S)-methyl amino Compd.,[1]; [10],BDL
same,Impurity Profile (iii) Benzocylco butane Compd.,[1]; [10],BDL
same,Impurity Profile (iv) Dimer Impurity,[1]; [10],BDL
same,Polymorph,"[1]; Initial, listed as Form-II, hydrochloride",Form-II
same,Impurity Profile (v) Single Ind.,[1]; [10],0.04
same,Impurity Profile (vi) Total Imp.,[1]; [10],0.09
same,Water by KF (% w/w),"[1]; Initial, specification Not more than 4.0%",2.1 % w/w
same,Description,"[1]; Initial, specification White to slightly yellow powder",White
same,"quantity of crystalline β, δ, γ, or amorphous forms after storage",[1]; storage for 6 months at 40° C. and a relative humidity of 75%,no detectable quantity
same,"quantity of crystalline β, δ, γ, or amorphous forms after storage",[2],no detectable quantity
"COc1cc2c(cc1OC)CC(=O)N(CCCN(C)C[C@H]1Cc3cc(OC)c(OC)cc31)CC2.Cl [Form III, 3-{3-{{[(7S)-3,4-dimethoxybicyclo[4.2.0]octa-1,3,5-trien-7-yl]methyl}(methyl)amino}-propyl}-7,8-dimethoxy-1,3,4,5-tetrahydro-2H-3-benzazepin-2-one hydrochloride]",Impurity Profile (v) Single Ind.,[1]; [11],0.04
same,Impurity Profile (vi) Total Imp.,[1]; [11],0.07
same,Polymorph,[1]; [11],Form-III
same,Impurity Profile (v) Single Ind.,[1]; [12],0.03
same,Impurity Profile (vi) Total Imp.,[1]; [12],0.06
same,Polymorph,[1]; [12],Form-III
same,Impurity Profile (v) Single Ind.,[1]; [13],0.04
same,Polymorph,[1]; [13],Form-III
same,Polymorph,"[1]; 6 Months, 40° C. ± 2° C./75% ± 5% RH, listed as Form-III, hydrochloride",Form-III
same,Polymorph,"[1]; Initial, listed as Form-III, hydrochloride",Form-III
